Experimental data from patent publication US20250312462A1, “PAK1 DEGRADERS AND METHODS OF USE THEREOF” (INSTITUTE FOR CANCER RESEARCH D/B/A THE RESEARCH INSTITUTE …, priority 2022, published 2025).

What was measured:
Assay in all cases: KINOMEscan
Conditions in all cases: read-out: Percent Control
[1] = target: EPHA3 (Homo sapiens, UniProt P29320)
Description: (§1) The kinase engagement assay (KINOMEscan®) was performed by DiscoverX assessing binding abilities toward a set of kinases.

[2] = target: CAMKK1 (Homo sapiens, UniProt Q8N5S9)
Description: as §1

[3] = target: DMPK (Homo sapiens, UniProt Q09013)
Description: as §1

[4] = target: GAK (Homo sapiens, UniProt O14976)
Description: as §1

[5] = target: CHEK1 (Homo sapiens, UniProt O14757)
Description: as §1

[6] = target: p38-alpha (Homo sapiens, UniProt Q16539)
Sequence of p38-alpha (Q16539 whole entry): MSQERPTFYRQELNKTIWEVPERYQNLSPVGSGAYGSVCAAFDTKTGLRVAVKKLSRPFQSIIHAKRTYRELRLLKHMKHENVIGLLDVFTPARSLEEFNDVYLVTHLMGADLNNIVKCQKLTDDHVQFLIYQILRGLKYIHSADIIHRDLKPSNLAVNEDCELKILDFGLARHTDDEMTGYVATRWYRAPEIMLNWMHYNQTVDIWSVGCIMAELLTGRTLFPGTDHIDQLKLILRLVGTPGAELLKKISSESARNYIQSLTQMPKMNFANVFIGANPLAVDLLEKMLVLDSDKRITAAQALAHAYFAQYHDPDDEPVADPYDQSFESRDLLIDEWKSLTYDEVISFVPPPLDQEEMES
Description: as §1

[7] = target: FRK (Homo sapiens, UniProt P42685)
Description: as §1

[8] = target: FYN (Homo sapiens, UniProt P06241)
Description: as §1

[9] = target: STK33 (Homo sapiens, UniProt Q9BYT3)
Description: as §1

[10] = target: PIK3CG (Homo sapiens, UniProt P48736)
Description: as §1

[11] = target: PFTAIRE2 (Homo sapiens, UniProt Q96Q40)
Description: as §1

[12] = target: SBK1 (Homo sapiens, UniProt Q52WX2)
Description: as §1

[13] = target: ADCK3 (Homo sapiens, UniProt Q8NI60)
Description: as §1

[14] = target: STK35 (Homo sapiens, UniProt Q8TDR2)
Description: as §1

[15] = target: FLT1 (Homo sapiens, UniProt P17948)
Description: as §1

[16] = target: ERK2 (Homo sapiens, UniProt P28482)
Description: as §1

[17] = target: EGFR(L858R, T790M) (Homo sapiens, UniProt P00533, L858R/T790M)
Sequence of EGFR(L858R, T790M) (P00533 25-1210 T790M/L858R): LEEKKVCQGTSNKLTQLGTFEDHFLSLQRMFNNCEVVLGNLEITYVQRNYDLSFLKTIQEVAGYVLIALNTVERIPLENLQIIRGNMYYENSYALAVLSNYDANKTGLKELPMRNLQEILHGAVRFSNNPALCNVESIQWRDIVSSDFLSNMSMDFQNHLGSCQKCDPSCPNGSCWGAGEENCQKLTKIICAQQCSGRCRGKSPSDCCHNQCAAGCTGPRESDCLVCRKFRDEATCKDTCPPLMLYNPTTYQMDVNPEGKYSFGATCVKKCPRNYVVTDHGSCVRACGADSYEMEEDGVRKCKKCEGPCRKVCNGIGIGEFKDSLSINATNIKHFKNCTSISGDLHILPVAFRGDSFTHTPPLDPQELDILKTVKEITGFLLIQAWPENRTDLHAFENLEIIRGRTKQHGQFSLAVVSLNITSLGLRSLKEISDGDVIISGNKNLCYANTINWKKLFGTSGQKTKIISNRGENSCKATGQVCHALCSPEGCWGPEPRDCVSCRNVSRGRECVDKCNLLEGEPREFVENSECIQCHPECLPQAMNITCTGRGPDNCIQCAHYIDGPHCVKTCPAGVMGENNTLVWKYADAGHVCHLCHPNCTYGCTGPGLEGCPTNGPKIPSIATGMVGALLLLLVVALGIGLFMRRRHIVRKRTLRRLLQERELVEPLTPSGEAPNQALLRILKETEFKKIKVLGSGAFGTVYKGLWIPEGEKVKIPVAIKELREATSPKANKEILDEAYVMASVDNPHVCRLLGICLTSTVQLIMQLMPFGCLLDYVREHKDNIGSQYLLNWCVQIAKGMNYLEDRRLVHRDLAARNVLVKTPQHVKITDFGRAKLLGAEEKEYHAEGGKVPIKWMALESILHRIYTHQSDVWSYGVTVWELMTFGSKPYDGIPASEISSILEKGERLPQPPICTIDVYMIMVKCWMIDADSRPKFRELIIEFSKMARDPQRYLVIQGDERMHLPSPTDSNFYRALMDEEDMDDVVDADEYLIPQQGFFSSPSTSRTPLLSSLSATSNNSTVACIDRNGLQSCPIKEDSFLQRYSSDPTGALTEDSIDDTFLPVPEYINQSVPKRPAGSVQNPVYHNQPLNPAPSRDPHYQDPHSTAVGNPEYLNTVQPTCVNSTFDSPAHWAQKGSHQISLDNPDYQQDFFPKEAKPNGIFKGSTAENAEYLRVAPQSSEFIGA
Description: as §1

[18] = target: FES (Homo sapiens, UniProt P07332)
Description: as §1

[19] = target: PDGFRB (Homo sapiens, UniProt P09619)
Description: as §1

[20] = target: CAMK1B (Homo sapiens, UniProt Q6P2M8)
Description: as §1

[21] = target: RSK2(Kin.Dom.2-C-terminal) (Homo sapiens, UniProt P51812)
Description: as §1

[22] = target: EGFR(L861Q) (Homo sapiens, UniProt P00533, L861Q)
Description: as §1

[23] = target: MLK3 (Homo sapiens, UniProt Q16584)
Sequence of MLK3 (Q16584 whole entry): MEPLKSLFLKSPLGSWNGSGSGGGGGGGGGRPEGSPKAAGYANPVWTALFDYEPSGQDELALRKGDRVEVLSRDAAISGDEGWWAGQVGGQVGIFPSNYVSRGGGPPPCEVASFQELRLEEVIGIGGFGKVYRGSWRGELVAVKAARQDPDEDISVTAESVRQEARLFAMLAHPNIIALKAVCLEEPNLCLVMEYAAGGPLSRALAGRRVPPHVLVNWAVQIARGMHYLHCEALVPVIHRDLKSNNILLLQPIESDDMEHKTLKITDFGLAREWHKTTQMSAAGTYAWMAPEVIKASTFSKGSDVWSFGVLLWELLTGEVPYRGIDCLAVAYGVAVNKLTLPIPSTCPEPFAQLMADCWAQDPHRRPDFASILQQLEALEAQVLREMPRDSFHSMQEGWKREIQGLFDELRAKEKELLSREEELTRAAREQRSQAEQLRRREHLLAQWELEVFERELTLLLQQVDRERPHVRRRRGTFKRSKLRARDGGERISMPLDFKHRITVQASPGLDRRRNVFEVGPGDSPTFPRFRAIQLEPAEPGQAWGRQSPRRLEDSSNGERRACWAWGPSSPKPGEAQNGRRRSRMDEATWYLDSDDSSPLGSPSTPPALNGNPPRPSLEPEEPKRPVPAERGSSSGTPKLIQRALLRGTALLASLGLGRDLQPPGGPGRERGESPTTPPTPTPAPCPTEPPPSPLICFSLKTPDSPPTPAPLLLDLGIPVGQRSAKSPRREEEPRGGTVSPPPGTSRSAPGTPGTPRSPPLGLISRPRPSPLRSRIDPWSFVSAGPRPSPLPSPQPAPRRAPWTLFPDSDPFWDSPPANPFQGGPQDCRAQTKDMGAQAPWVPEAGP
Description: as §1

[24] = target: ACVR1 (Homo sapiens, UniProt Q04771)
Description: as §1

[25] = target: MAP4K2 (Homo sapiens, UniProt Q12851)
Description: as §1

[26] = target: BMX (Homo sapiens, UniProt P51813)
Description: as §1

[27] = target: INSR (Homo sapiens, UniProt P06213)
Description: as §1

[28] = target: EPHA6 (Homo sapiens, UniProt Q9UF33)
Sequence of EPHA6 (Q9UF33 23-1036): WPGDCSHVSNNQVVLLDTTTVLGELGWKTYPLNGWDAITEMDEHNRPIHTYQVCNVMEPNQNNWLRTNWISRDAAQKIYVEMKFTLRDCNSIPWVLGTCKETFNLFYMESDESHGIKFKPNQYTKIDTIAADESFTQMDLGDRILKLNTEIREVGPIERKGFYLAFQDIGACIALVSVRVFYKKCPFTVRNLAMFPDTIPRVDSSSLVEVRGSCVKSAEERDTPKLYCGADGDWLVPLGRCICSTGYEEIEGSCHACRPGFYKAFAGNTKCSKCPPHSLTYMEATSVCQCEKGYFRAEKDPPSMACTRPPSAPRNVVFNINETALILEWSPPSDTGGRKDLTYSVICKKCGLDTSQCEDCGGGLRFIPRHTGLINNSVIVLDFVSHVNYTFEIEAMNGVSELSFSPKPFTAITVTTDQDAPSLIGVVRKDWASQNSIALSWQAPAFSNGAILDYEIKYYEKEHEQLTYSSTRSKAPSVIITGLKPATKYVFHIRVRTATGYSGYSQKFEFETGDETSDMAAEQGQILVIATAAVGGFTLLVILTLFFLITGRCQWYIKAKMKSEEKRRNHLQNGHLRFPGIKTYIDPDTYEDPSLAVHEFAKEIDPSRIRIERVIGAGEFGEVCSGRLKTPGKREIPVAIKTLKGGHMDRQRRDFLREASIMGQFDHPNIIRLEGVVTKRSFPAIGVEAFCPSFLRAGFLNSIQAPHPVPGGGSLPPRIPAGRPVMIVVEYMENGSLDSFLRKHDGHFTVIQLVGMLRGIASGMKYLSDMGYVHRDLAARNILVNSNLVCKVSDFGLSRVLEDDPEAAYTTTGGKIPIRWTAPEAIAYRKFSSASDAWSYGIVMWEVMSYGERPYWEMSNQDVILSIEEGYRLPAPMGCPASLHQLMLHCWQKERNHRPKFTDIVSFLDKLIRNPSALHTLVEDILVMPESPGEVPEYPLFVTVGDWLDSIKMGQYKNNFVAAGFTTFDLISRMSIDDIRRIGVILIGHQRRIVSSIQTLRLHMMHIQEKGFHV
Description: as §1

[29] = target: CLK2 (Homo sapiens, UniProt P49760)
Description: as §1

[30] = target: MAP3K4 (Homo sapiens, UniProt Q9Y6R4)
Sequence of MAP3K4 (Q9Y6R4 whole entry): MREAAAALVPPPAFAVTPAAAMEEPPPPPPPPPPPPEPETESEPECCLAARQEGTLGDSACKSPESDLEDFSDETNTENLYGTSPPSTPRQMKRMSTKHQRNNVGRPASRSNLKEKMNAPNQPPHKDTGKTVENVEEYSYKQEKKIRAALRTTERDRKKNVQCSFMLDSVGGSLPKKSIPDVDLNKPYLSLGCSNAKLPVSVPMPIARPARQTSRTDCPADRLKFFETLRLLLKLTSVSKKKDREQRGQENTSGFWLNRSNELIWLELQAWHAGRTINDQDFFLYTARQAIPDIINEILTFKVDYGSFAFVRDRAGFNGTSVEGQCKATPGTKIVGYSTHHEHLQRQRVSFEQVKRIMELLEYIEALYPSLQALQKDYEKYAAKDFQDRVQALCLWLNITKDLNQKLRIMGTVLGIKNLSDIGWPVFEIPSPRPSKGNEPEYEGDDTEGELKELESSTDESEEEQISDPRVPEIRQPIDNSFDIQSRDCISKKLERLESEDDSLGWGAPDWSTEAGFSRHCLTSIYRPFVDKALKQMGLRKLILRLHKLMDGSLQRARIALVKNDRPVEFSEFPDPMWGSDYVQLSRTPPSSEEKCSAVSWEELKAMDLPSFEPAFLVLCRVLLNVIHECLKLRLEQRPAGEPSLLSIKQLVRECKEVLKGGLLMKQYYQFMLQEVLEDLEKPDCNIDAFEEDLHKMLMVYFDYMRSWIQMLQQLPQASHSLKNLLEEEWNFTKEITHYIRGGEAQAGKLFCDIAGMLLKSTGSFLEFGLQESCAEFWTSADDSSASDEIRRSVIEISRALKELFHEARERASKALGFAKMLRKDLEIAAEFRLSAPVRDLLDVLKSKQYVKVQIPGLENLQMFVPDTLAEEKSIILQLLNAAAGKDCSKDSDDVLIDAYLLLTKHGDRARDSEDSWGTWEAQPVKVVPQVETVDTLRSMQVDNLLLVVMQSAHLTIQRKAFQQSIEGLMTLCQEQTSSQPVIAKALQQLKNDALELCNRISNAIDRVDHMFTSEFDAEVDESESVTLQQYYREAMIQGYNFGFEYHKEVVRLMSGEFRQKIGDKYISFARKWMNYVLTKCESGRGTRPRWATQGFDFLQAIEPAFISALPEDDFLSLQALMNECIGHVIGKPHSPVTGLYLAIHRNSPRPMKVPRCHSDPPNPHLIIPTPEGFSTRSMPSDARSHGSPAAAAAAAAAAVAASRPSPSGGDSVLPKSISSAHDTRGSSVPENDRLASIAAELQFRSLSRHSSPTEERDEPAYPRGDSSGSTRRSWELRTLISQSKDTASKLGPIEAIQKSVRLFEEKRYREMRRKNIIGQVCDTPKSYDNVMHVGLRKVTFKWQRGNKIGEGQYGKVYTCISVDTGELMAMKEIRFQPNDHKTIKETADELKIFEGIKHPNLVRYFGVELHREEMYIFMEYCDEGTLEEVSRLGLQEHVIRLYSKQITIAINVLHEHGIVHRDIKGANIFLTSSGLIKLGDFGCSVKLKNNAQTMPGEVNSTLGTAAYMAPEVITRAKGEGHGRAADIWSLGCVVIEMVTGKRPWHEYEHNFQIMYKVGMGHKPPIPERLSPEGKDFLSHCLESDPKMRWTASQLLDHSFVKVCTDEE
Description: as §1

[31] = target: EPHB6 (Homo sapiens, UniProt O15197)
Description: as §1

[32] = target: ZAK (Homo sapiens, UniProt Q9NYL2)
Description: as §1

[33] = target: RPS6KA4(Kin.Dom.2-C-terminal) (Homo sapiens, UniProt O75676)
Description: as §1

[34] = target: BTK (Homo sapiens, UniProt Q06187)
Description: as §1

[35] = target: CSF1R-autoinhibited (Homo sapiens, UniProt P07333)
Description: as §1

[36] = target: GRK7 (Homo sapiens, UniProt Q8WTQ7)
Description: as §1

[37] = target: MARK4 (Homo sapiens, UniProt Q96L34)
Description: as §1

[38] = target: PRKG2 (Homo sapiens, UniProt Q13237)
Description: as §1

O=C1CCC(N2C(=O)c3cccc(NCCCCCCCCNC(=O)N4CC[C@H](NC5=Nc6cc(F)ccc6N(CC(F)F)c6ccc(Cl)cc65)C4)c3C2=O)C(=O)N1 (stereo partly drawn) [BJG-05-039, (3S)-3-((2-Chloro-5-(2,2-difluoroethyl)-8-fluoro-5H-dibenzo[b,e][1,4]diazepin-11-yl)amino)-N-(8-((2-(2,6-dioxopiperidin-3-yl)-1,3-dioxoisoindolin-4-yl)amino)octyl)pyrrolidine-1-carboxamide]
remaining binding at 10 µM [1]: 47% | remaining binding at 10 µM [2]: 52% | remaining binding at 10 µM [3]: 52% | remaining binding at 10 µM [4]: 56% | remaining binding at 10 µM [5]: 57% | remaining binding at 10 µM [6]: 60% | remaining binding at 10 µM [7]: 67% | remaining binding at 10 µM [8]: 71% | remaining binding at 10 µM [9]: 75% | remaining binding at 10 µM [10]: 77% | remaining binding at 10 µM [11]: 78% | remaining binding at 10 µM [12]: 82% | remaining binding at 10 µM [13]: 83% | remaining binding at 10 µM [14]: 83% | remaining binding at 10 µM [15]: 84% | remaining binding at 10 µM [16]: 85% | remaining binding at 10 µM [17]: 86% | remaining binding at 10 µM [18]: 86% | remaining binding at 10 µM [19]: 86% | remaining binding at 10 µM [20]: 87% | remaining binding at 10 µM [21]: 87% | remaining binding at 10 µM [22]: 88% | remaining binding at 10 µM [23]: 88% | remaining binding at 10 µM [24]: 89% | remaining binding at 10 µM [25]: 89% | remaining binding at 10 µM [26]: 90% | remaining binding at 10 µM [27]: 93% | remaining binding at 10 µM [28]: 94% | remaining binding at 10 µM [29]: 95% | remaining binding at 10 µM [30]: 95% | remaining binding at 10 µM [31]: 97% | remaining binding at 10 µM [32]: 97% | remaining binding at 10 µM [33]: 99% | remaining binding at 10 µM [34]: 100% | remaining binding at 10 µM [35]: 100% | remaining binding at 10 µM [36]: 100% | remaining binding at 10 µM [37]: 100% | remaining binding at 10 µM [38]: 100%
